These results are taken from US6797723B1, “Heterocycle substituted diphenyl leukotriene antagonists” (Eli Lilly and Company, priority 1999, dated 2004).

Structures are written as SMILES. Where “and” joins values, the source holds several entries; their conditions need not be identical. Identical values can stand only once. Counter-ions that a name gives are not always drawn. Like-named read-outs stand apart in the source and are kept apart here.

For data set [1], the system named is LTB4-mediated CD11b upregulation on human neutrophils. The experiment in a line: LTB4-mediated CD11b upregulation on human neutrophils (flow cytometry, anti-CD11b-FITC). It counts as cell-based. The procedure:
The following Assay method was used to evaluate the effects of 3 compounds for LTB4-mediated CD11b upregulation on human neutrophils:
Note: The Assay procedure described herein was modeled after a previously published method(viz., Prostaglandins, Leukot, Essent. Fatty Acids. 46:265-270. 1992, Biochem. Pharmacol. 49:1683-1690. 1995), the disclosure of which is incorporated herein by reference.
Approximately 1-2 mg of each compound was weighed and diluted to 1 mM in neat dimethyl sulphoxide (DMSO). These stocks were then diluted (using “doubling” dilutions) in assay buffer.
The assay buffer used throughout the studies consisted of Hanks Balanced Salts Solution (HBSS) with added 0.5% bovine serum albumin, low endotoxin (ICN Biomedicals Catalog #16-980-49). After dissolving the BSA in the HBSS, the buffer was membrane-filtered (0.2 μ) before use.
Human blood was drawn into 3×10 ml EDTA-K3 Vacutainer tubes, which were pooled and mixed in a 50 ml, blue cap polypropylene tube. Three ml portions of Mono-Poly Resolving medium (MPRM; ICN #16-980-49) were dispensed into 4 separate 13×100 glass disposable tubes. An additional 0.3 ml of PBS (phosphate buffered saline) was added to each tube and mixed with the MPRM by vigorous vortexing. Exactly 3.5 ml of the blood was carefully layered on top of the four MPRM-water mixtures. The tubes were gradually accelerated to 400×g and spun at this speed for 30 min at room temperature. Tubes were removed from the centrifuge and both the plasma and top cell (mononuclear) layers were removed and discarded. The second layer of cells was carefully collected, pooled and washed with assay buffer. The collected neutrophil cell preparation was then spun at 400×g for 5 min and re-washed once again. The cells were resuspended in assay buffer and counted using a Cell-Dyn 1600 cell counter (Abbott Diagnostics Co.). They were then resuspended in buffer at 9×10^6 cells/ml and held briefly for addition in a later step of the assay.
LTB4, (Biomol; ETOH stock @148.5 μM) was diluted to a 3.9 μM stock in assay buffer by dilution of 10 μl ETOH stock+371 μl assay buffer, mixed well and further diluted 1:100 (100 μl+9.9 ml buffer) to make a use stock of 39 nm in buffer for later use. The final concentration of LTB4 (3 nM) was determined after several experimental runs.
Exactly 10 μl of each putative compound/dilution and 10 μl of anti-CD11b-FITC (FITC=Fluorescein Isothiocyanate; Biosource Intl., #AHS1148) was carefully added to the bottom of 12×75 mm polypropylene tubes (Falcon #2063) as determined by the experimental design. Following this, 100 μl of the human neutrophil preparation (9E6/ml) was added and mixed well by vortexing. The compound/cell mixtures were incubated together for 15 minutes at room temperature. Following this incubation, 10 μl of diluted LTB4 stock was added (to make 3 nM final LTB4 concentration), mixed by vortexing and incubated in a 37° C. shaking water bath for 30 min. Following this the tubes were immediately placed on ice for 10 minutes. Following this 1 ml of diluted BD FACS Lyse (Becton Dickinson Fluorescense Activated Cell Sorting Lyse) was added to the tubes and vortexed. 10 minutes later the tubes were spun at 400×g at room temperature. After centrifugation, the tubes were aspirated and re-suspended in 1.0 ml of 1% paraformaldehyde solution.
The samples were then analyzed for fluorescence intensity (linear scale) using an EPICS XL flow cytometer and the “Mo-1 Isolated Neutrophil” protocol.
The mean fluorescence intensity (MFI) for each sample was computed using WinList software and expressed as percentage of maximum MFI.Microsoft Excel and further graphed and analyzed using linear regression.
In general terms: A flow cytometer gives signals particle by particle.

The mark [2] stands for this setting: Homo sapiens, Neutrophil, isolated human neutrophils, 3 nM LTB4, semicolons separate individual assay determinations, read-out: CD11b/CD18 IC50.
Setting [3] is: isolated human neutrophils, 3 nM LTB4, semicolons separate individual assay determinations, read-out: CD11b/CD18 IC50.
[4] abbreviates: Homo sapiens, Neutrophil, read-out: CD11b/CD18 IC50 (nM), isolated human neutrophils, 3 nM LTB4, semicolons separate individual assay determinations.
[5] abbreviates: read-out: CD11b/CD18 IC50, isolated human neutrophils, 3 nM LTB4, semicolons separate individual assay determinations, sodium salt.

One may read the melting point as the temperature of the solid-liquid transition. `CCCc1c(OCCCOc2cc(O)c(C3CCOC3)cc2CC)cccc1Oc1ccccc1C(=O)[O-].[Na+]` (stereo not shown) (hydrate or solvate) [Example 15, 2-(3-{3-[2-Ethyl-5-hydroxy-4-(tetrahydrofuran-3-yl)phenoxy]propoxy}-2-propylphenoxy)benzoic acid sodium salt hemihydrate] had a melting point of 67 to 71 °C.
The same measure, in the same setting: the same measure for `CCCc1c(OCCCOc2cc(O)c(-c3ccsc3)cc2CC)cccc1Oc1ccccc1C(=O)O` (hydrate or solvate) [Example 17, 2-{3-[3-(2-Ethyl-5-hydroxy-4-thiophen-3-yl-phenoxy)propoxy]-2-propyl-phenoxy}benzoic acid hydrate]: 90 to 95 °C (dec.).
On to `CCCc1c(OCCCOc2cc(O)c(-c3ccc(F)cc3)cc2CC)cccc1Oc1ccccc1C(=O)O` [Compound A, reference compound], for which, in data set [1] (Homo sapiens, Neutrophil, comparison compounds, isolated human neutrophils, 3 nM LTB4, A = average of 3 tests, read-out: IC-50 (nM) ± SEM), the IC50 was found to be 1.7 ± 0.25 nM.
With `CCCc1c(OCCCOc2cc(O)c(-c3ccc(F)cc3)cc2CC)cccc1Oc1ccccc1C#N` [Compound B, reference compound], the “IC-50 (nM) ± SEM” value in data set [1] (comparison compounds, isolated human neutrophils, 3 nM LTB4, A = average of 3 tests) is given as “not active”.
As for `CCCc1c(OCCCOc2cc(O)c(-c3cocn3)cc2CC)cccc1Oc1ccccc1C(=O)O` [Example 1, 2-{3-[3-(2-Ethyl-5-hydroxy-4-oxazol-4-yl-phenoxy)propoxy]-2-propyl-phenoxy}benzoic acid], the IC50 in data set [1] (setting [2]) was 480 nM.
On the same count and under the same terms, the same measure for `CCCc1c(OCCCOc2cc(O)c(-c3cnc[nH]3)cc2CC)cccc1Oc1ccccc1C(=O)O` [Example 2, 2-(3-{3-[2-Ethyl-5-hydroxy-4-(3H-imidazol-4-yl)phenoxy]propoxy}-2-propyl-phenoxy)benzoic acid hydrochloride]: 5880 nM.
Take `CCCc1c(OCCCOc2cc(O)c(-c3cscn3)cc2CC)cccc1Oc1ccccc1C(=O)O` [Example 3, 2-{3-[3-(2-Ethyl-5-hydroxy-4-thiazol-4-yl-phenoxy)propoxy]-2-propyl-phenoxy}benzoic acid]: the IC50 in data set [1] (setting [2]) was found to be 353 nM; in data set [1] (setting [3]) it was 339 nM.
For the compound `CCCc1c(OCCCOc2cc(O)c(-c3ccn[nH]3)cc2CC)cccc1Oc1ccccc1C(=O)O` [Example 4, 2-(3-{3-[2-Ethyl-5-hydroxy-4-(2H-pyrazol-3-yl)phenoxy]propoxy}-2-propyl-phenoxy)benzoic acid], the IC50 in data set [1] (setting [2]) turned out to be 74 nM; in data set [1] (setting [3]), 117 nM.
The corresponding values for `CCCc1c(OCCCOc2cc(O)c(-c3ccno3)cc2CC)cccc1Oc1ccccc1C(=O)O` [Example 5, 2-{3-[3-(2-ethyl-5-hydroxy-4-isoxazol-5-yl-phenoxy)propoxy]-2-propylphenoxy}benzoic acid] are 175 nM and 223 nM.
On to `CCCc1c(OCCCOc2cc(O)c(-c3cnn[nH]3)cc2CC)cccc1Oc1ccccc1C(=O)O` [Example 6], for which the IC50 in data set [1] (setting [2]) was 260 nM.
Consider `CCCc1c(OCCCOc2cc(O)c(-n3cccc3)cc2CC)cccc1Oc1ccccc1C(=O)OC` [Example 7, 2-{3-[3-(2-ethyl-5-hydroxy-4-pyrrol-1-yl-phenoxy)propoxy]-2-propyl-phenoxy}benzoic acid methyl ester], for which the IC50 was 2020 nM in data set [1] (setting [2]) and 3790 nM in data set [1] (setting [3]).
In the case of `CCCc1c(OCCCOc2cc(O)c(-c3nc(Br)ns3)cc2CC)cccc1Oc1ccccc1C(=O)O` [Example 8, 2-(3-{3-[4-(3-bromo-[1,2,4]thiadiazol-5-yl)-2-ethyl-5-hydroxyphenoxy]propoxy}-2-propylphenoxy)benzoic acid], the IC50 in data set [1] (setting [2]) is > 50000 nM.
In the case of `CCCc1c(OCCCOc2cc(O)c(-c3cccs3)cc2CC)cccc1Oc1ccccc1C(=O)O` [Example 9, 2-{3-[3-(2-Ethyl-5-hydroxy-4-thiophen-2-yl-phenoxy)propoxy]-2-propyl-phenoxy}benzoic acid sodium salt], the IC50 is 23 nM in data set [1] (setting [4]) and 20 nM in data set [1] (setting [5]).
For the compound `CCCc1c(OCCCOc2cc(O)c(-c3cnn(C)c3)cc2CC)cccc1Oc1ccccc1C(=O)O` [Example 10, 2-(3-{3-[2-ethyl-5-hydroxy-4-(1-methyl-1H-pyrazol-4-yl)-phenoxy]propoxy}-2-propylphenoxy)benzoic acid], the IC50 in data set [1] (setting [3]) was 14 nM and 4.4 nM and 8.3 nM.
Take `CCCc1c(OCCCOc2cc(O)c(-c3nccs3)cc2CC)cccc1Oc1ccccc1C(=O)O` [Example 11, 2-{3-[3-(2-Ethyl-5-hydroxy-4-thiazol-2-yl-phenoxy)propoxy]-2-propyl-phenoxy}benzoic acid]: in data set [1] (setting [3]), the IC50 was 620 nM and 2560 nM and 1010 nM.
For the compound `CCCc1c(OCCCOc2cc(O)c(-c3c(C)noc3C)cc2CC)cccc1Oc1ccccc1C(=O)O` [Example 12, 2-(3-{3-[4-(3,5-Dimethylisoxazol-4-yl)-2-ethyl-5-hydroxyphenoxy]propoxy}-2-propylphenoxy)benzoic acid sodium salt], the values for the IC50 in data set [1] (setting [4]) and in data set [1] (setting [5]) were 10000 nM and 5700 nM, respectively.
With `CCCc1c(OCCCOc2cc(O)c(-c3ccco3)cc2CC)cccc1Oc1ccccc1C(=O)O` [Example 13, 2-{3-[3-(2-Ethyl-4-furan-2-yl-5-hydroxyphenoxy)propoxy]-2-propylphenoxy}-benzoic acid sodium salt], the IC50 in data set [1] (setting [4]) is 39 nM; in data set [1] (setting [5]), 54 nM.
Regarding `CCCc1c(OCCCOc2cc(O)c(-c3ccoc3)cc2CC)cccc1Oc1ccccc1C(=O)O` [Example 14], the IC50 in data set [1] (setting [2]) stood at 31 nM; in data set [1] (setting [3]), 30 nM.
With `CCCc1c(OCCCOc2cc(O)c(C3CCOC3)cc2CC)cccc1Oc1ccccc1C(=O)O` (stereo not shown) [Example 15, 2-(3-{3-[2-Ethyl-5-hydroxy-4-(tetrahydrofuran-3-yl)phenoxy]propoxy}-2-propylphenoxy)benzoic acid sodium salt hemihydrate], in data set [1] (setting [4]), the IC50 stood at 27 nM.
Consider `CCCc1c(OCCCOc2cc(O)c(C3CCCN3)cc2CC)cccc1Oc1ccccc1C(=O)O` (stereo not shown) [Example 16, 2-{3-[3-(2-Ethyl-5-hydroxy-4-pyrrolidin-2-yl-phenoxy)propoxy]-2-propyl-phenoxy}benzoic acid hydrochloride hydrate], for which the IC50 in data set [1] (setting [2]) came out at 1080 nM; in data set [1] (isolated human neutrophils, 3 nM LTB4, semicolons separate individual assay determinations, hydrochloride hydrate, read-out: CD11b/CD18 IC50), 837 nM.
On to `CCCc1c(OCCCOc2cc(O)c(-c3ccsc3)cc2CC)cccc1Oc1ccccc1C(=O)O` [Example 17, 2-{3-[3-(2-Ethyl-5-hydroxy-4-thiophen-3-yl-phenoxy)propoxy]-2-propyl-phenoxy}benzoic acid hydrate], for which the IC50 in data set [1] (setting [2]) is 11 nM; in data set [1] (isolated human neutrophils, 3 nM LTB4, semicolons separate individual assay determinations, hydrate, read-out: CD11b/CD18 IC50), 5.6 nM and 8 nM.
